Measured values as given in patent publication US12534436B2, “Disubstituted adamantyl derivative or pharmaceutically acceptable salt thereof, and pharmaceutical composition for suppressing cancer growth comprising same as active ingredient” (ONECUREGEN CO., LTD., priority 2020, dated 2026).

Test system: HIF-1 (HRE-dependent luciferase reporter)
Assay: HRE-luciferase assay, screening of HIF-1 inhibitors in HCT116 cells
Format: cell-based, human
Settings: HCT116 cells stably expressing HRE-dependent luciferase reporter, hypoxic conditions, 12 hours, means of three experiments
Procedure: HCT116 cells stably expressing the HRE-dependent luciferase reporter were treated with the disubstituted adamantyl derivative prepared in the above example under hypoxic conditions for 12 hours before measuring luciferase activity.
In HCT116 cells treated with disubstituted adamantyl derivatives, luciferase activity was investigated using HRE-luciferase assay. The HRE-luciferase reporter assay was performed as previously described using the luciferase assay system (Promega, Madison, WI, USA) according to the manufacturer's instructions (Naik, R. et al. Synthesis and Structure-Activity Relationship of (E)Phenoxyacrylic Amide Derivatives as Hypoxia-Inducible Factor (HIF) 1α Inhibitors. J. Med. Chem. 55, 10564-1057 (2012)). Luciferase activity was measured using a Victor X light luminescence reader (PerkinElmer, Boston, MA, USA).

COC(=O)c1cccc(NC(=O)COc2ccc(C34CC5CC(CC(C(=O)NCc6ccccc6)(C5)C3)C4)cc2)c1 [Compound 10g, Methyl-3-(2-(4-(3-benzylcarbamoyl-adamantan-1-yl)phenoxy)acetamido)benzoate]
IC50 (Homo sapiens, HCT-116): 1.3 µM

COc1ccc(COC(=O)C23CC4CC(CC(C4)C2c2ccc(OCC(=O)Nc4cccc5cccnc45)cc2)C3)cc1OC (stereo not shown) [Compound 14b, 3,4-Dimethoxybenzyl-2-(4-(2-oxo-2-(quinolin-8-ylamino)ethoxy)phenyl) adamantane-1-ylcarboxylate]
IC50: > 20 µM

CN1CCN(C(=O)COc2ccc(C34CC5CC(CC(C(=O)N6CCN(Cc7ccc(C(F)(F)F)cc7)CC6)(C5)C3)C4)cc2)CC1 [Compound 17b, 1-(4-Methylpiperazin-1-yl)-2-(4-(5-(4-(4-(trifluoromethyl)benzyl)piperazine-1-carbonyl)adamantan-1-yl-)phenoxy) ethanone]
IC50: 2.19 µM

COC(=O)c1cccc(NC(=O)COc2ccc(C34CC5CC(CC(C(=O)N6CCc7cc(OC)c(OC)cc7C6)(C5)C3)C4)cc2)c1 [Compound 10j, Methyl-3-(2-(4-(3-(6,7-dimethoxy-1,2,3,4-tetrahydroisoquinoline-2-carbonyl)-adamantan-1-yl)phenoxy)acetamido)benzoate]
IC50 (Homo sapiens, HCT-116): 1.3 µM

COc1cc2c(cc1OC)CN(C(=O)C13CC4CC(C1)CC(c1ccc(OCC(=O)N5CCOCC5)cc1)(C4)C3)CC2 [Compound 21a, 2-(4-(3-(6,7-Dimethoxy-1,2,3,4-tetrahydroisoquinoline-2-carbonyl)adamantan-1-yl)phenoxy)-1-morpholinoethanone]
IC50 (Homo sapiens, HCT-116): 5.43 µM

COC(=O)c1cccc(NC(=O)COc2ccc(C34CC5CC(CC(C(=O)NCc6ccco6)(C5)C3)C4)cc2)c1 [Compound 10h, Methyl-3-(2-(4-(3-(furan-2-ylmethylcarbamoyl)-adamantan-1-yl)phenoxy)acetamido)benzoate]
IC50 (Homo sapiens, HCT-116): 3 µM

COC(=O)c1cccc(NC(=O)COc2ccc(C34CC5CC(CC(C5)C3C(=O)OCCc3ccc(OC)c(OC)c3)C4)cc2)c1 (stereo not shown) [Compound 10d, Methyl-3-(2-(4-(2-((3,4-dimethoxyphenethoxy)carbonyl)adamantane-1-yl)phenoxy)acetamido)benzoate]
IC50 (Homo sapiens, HCT-116): > 20 µM

COC(=O)c1cccc(NC(=O)COc2ccc(C34CC5CC(C3)C(C(=O)OCc3ccc(OC)c(OC)c3)C(C5)C4)cc2)c1 (stereo not shown) [Compound 10c, Methyl-3-(2-(4-(4-((3,4-dimethoxybenzyloxy)carbonyl)adamantane-1-yl)phenoxy)acetamido)benzoate]
IC50 (Homo sapiens, HCT-116): 2.37 µM

CN1CCN(C(=O)COc2ccc(C34CC5CC(CC(C(=O)NCc6ccco6)(C5)C3)C4)cc2)CC1 [Compound 17a, N-(Furan-2-ylmethyl)-5-(4-(2-(4-methylpiperazin-1-yl)-2-oxoethoxy)phenyl) adamantan-1-yl-carboxamide]
IC50: > 20 µM

COc1ccc(COC(=O)C23CC4CC(CC(C4)C2c2ccc(OCC(=O)Nc4cccc(C(F)(F)F)c4)cc2)C3)cc1OC (stereo not shown) [Compound 14a, 3,4-Dimethoxybenzyl-2-(4-(2-oxo-2-(3-(trifluoromethyl)phenylamino)ethoxy)phenyl) adamantane-1-ylcarboxylae]
IC50: > 20 µM

COc1ccc(COC(=O)C23CC4CC(CC(C4)C2c2ccc(OCC(=O)NCc4ccco4)cc2)C3)cc1OC (stereo not shown) [Compound 14c, 3,4-Dimethoxybenzyl-2-(4-(2-(furan-2-ylmethylamino)-2-oxoethoxy)phenyl) adamantane-1-ylcarboxylate]
IC50: 22.5 µM

COc1ccc(COC(=O)C23CC4CC(CC(C4)C2c2ccc(OCC(=O)N4CCN(C)CC4)cc2)C3)cc1OC (stereo not shown) [Compound 14d, 3,4-Dimethoxybenzyl-2-(4-(2-(4-methylpiperazin-1-yl)-2-oxoethoxy)phenyl) adamantane-1-ylcarboxylate]
IC50: 1.67 µM

COc1ccc(CN2CCN(C(=O)C34CC5CC(C3)CC(c3ccc(OCC(=O)N6CCN(C)CC6)cc3)(C5)C4)CC2)cc1 [Compound 17c, 2-(4-(5-(4-(4-Methoxybenzyl)piperazine-1-carbonyl)adamantan-1-yl)phenoxy)-1-(4-methylpiperazin-1-yl) ethanone]
IC50 (Homo sapiens, HCT-116): 9.53 µM

COc1cc2c(cc1OC)CN(C(=O)C13CC4CC(C1)CC(c1ccc(OCC(=O)N5CCN(C)CC5)cc1)(C4)C3)CC2 [Compound 21b, 2-(4-(3-(6,7-Dimethoxy-1,2,3,4-tetrahydroisoquinoline-2-carbonyl)adamantan-1-yl)phenoxy)-1-(4-methylpiperazin-1-yl) ethanone]
IC50 (Homo sapiens, HCT-116): 9.51 µM

COC(=O)c1cccc(NC(=O)COc2ccc(C34CC5CC(CC(C(=O)OC)(C5)C3)C4)cc2)c1 [Compound 10a, Methyl-3-(2-(4-(3-((methoxy)carbonyl)adamantane-1-yl)phenoxy)acetamido)benzoate]
IC50 (Homo sapiens, HCT-116): 18.3 µM

COC(=O)c1cccc(NC(=O)COc2ccc(C34CC5CC(CC(C(=O)Nc6ccccn6)(C5)C3)C4)cc2)c1 [Compound 10i, Methyl-3-(2-(4-(3-(pyridin-2-ylcarbamoyl)-adamantan-1-yl)phenoxy)acetamido)benzoate]
IC50 (Homo sapiens, HCT-116): 2.4 µM

COC(=O)c1cccc(NC(=O)COc2ccc(C34CC5CC(CC(C(=O)OCc6ccco6)(C5)C3)C4)cc2)c1 [Compound 10e, Methyl-3-(2-(4-(3-((furan-2-ylmethoxy)carbonyl)adamantane-1-yl)phenoxy)acetamido)benzoate]
IC50 (Homo sapiens, HCT-116): 6.4 µM

COC(=O)c1cccc(NC(=O)COc2ccc(C34CC5CC(C3)C(C(=O)OCc3ccc(OC)cc3)C(C5)C4)cc2)c1 (stereo not shown) [Compound 10b, Methyl-3-(2-(4-(4-((4-methoxybenzyloxy)carbonyl)adamantane-1-yl)phenoxy)acetamido)benzoate]
IC50 (Homo sapiens, HCT-116): > 20 µM

CNC(=O)C12CC3CC(C1)CC(c1ccc(OCC(=O)Nc4cccc(C(=O)OC)c4)cc1)(C3)C2 [Compound 10f, Methyl-3-(2-(4-(3-methylcarbamoyl-adamantan-1-yl)phenoxy)acetamido)benzoate]
IC50 (Homo sapiens, HCT-116): 16.6 µM
